Measurements published in patent publication US8318950B2, “N-acyl amino acid derivatives, a method for the preparation thereof, a pharmaceutical composition and use thereof as anti-allergic, anti-inflammatory and hypolipidemic agents” (Otkrytoe Aktsionernoe Obschestvo-Otechestvennye Lekarstva, priority 2005, dated 2012).
Where “and” joins values, the source holds several entries; their conditions need not be identical. Equal values may be shown once.

Tested on: hypercholesterolemia in Wistar rats
Test: Model of hypercholesterolemia in rats (oral cholesterol loading)
Assay type: in vivo, rat
Experimental: The study was carried out on male Wistar rats weighing 200±20 g. Hyperlipidemia was induced by oral administration of cholesterol loading, oily cholesterol suspension:
olive oil (Acorsa, Spain)—5 ml/kg weigh of animals;
cholesterol (Sigma, USA)—1 g/kg weight;
sodium cholate (Sigma, USA)—100 mg/kg weight.
As a reference preparation, the preparation from the group of statines “Mevacor” (Lovastatine) manufactured by the firm Merck Sharp & Dohn was used at dose 40 mg/kg. Cholesterol suspension was administered daily in the morning for 10 days. The compounds tested (at dose 500 μg/kg) and the reference preparation (at dose 40 mg/kg) were administered to the animals togester with cholesterol suspension for 10 days. All the animals received a standard briquetted forage.
The animals were divided into the following groups:
“Control”—intact animals (n=5);
“Cholesterol”—rats that orally received cholesterol loading (n=10);
“Lovastatine”—rats that orally received cholesterol loading and Lovastatine (n=10);
“Compound IV”—rats that orally received cholesterol loading and the tested compound IV (n=10).
Blood was sampled at days 5, 8 and 10 of the experiment.
Statistical processing of the hypolipidemic action data of the tested substances was carried out with regard to the “Cholesterol” group (Table 13).
Experimental groups included:
1) “Cholesterol”—rats orally administered with oily cholesterol suspension for 10 days;
2) “Compound IV”—rats orally administered with oily cholesterol suspension and the tested compound N;
3) “Compound IV—1Na”—rats orally administered with oily cholesterol suspension and the tested mono-sodium salt of compound N;
4) “Compound IV—2Na”—rats orally administered with oily cholesterol suspension and the tested di-sodium salt of compound N;
5) “Compound V—1Na”—rats orally administered with oily cholesterol suspension and the tested mono-sodium salt of the compound V;
6) “Compound III—1Na”—rats orally administered with oily cholesterol suspension and the tested mono-sodium salt of the compound III;
7) “Compound II—1Na”—rats orally administered with oily cholesterol suspension and the tested mono-sodium salt of the compound II;
8) “Sim”—rats orally administered with oily cholesterol suspension and Simvastatine;
9) control—intact rats before beginning the test.
At day 10 of the test blood samples were taken following decapitation of the animals. The animals fasted for 12 hours prior to decapitation.
Blood serum total cholesterol, triglycerides and high density lipoprotein cholesterol (HDLC) were measured. Low and very low density lipoprotein cholesterol was calculated by the difference between total cholesterol and HDL cholesterol.
Blood serum total cholesterol and triglycerides were determined using the enzymatic methods.
Cholesterol level in high density lipoproteins (α-LP) was determined using the precipitation method of LDL and VLDL with phosphotungstic acid and magnesium ions.
Data in the tables are presented as a mean value±standard error. Significance of differences between the groups “cholesterol” and “preparation.” was assessed by the two-sampled Student's t-test.

[1] = day 5 of the experiment (Table 15)
[2] = day 5 of the experiment (Table 15), oral with oily cholesterol suspension
[3] = day 8 of the experiment (Table 16)
[4] = day 10 of the experiment (Table 17)
[5] = day 10 of the experiment (Table 21), Monosodium Salt
[6] = day 5 of the experiment (Table 19)
[7] = day 5 of the experiment (Table 19, n = 12 series)
[8] = day 8 of the experiment (Table 20)
[9] = day 10 of the experiment (Table 21)
[10] = rats with cholesterol loading, vs Cholesterol group
[11] = oral 10 days with cholesterol loading, tested compound 500 μg/kg, reference 40 mg/kg (Table 13)

## O=C([O-])CCCC(=O)N[C@@H](Cc1c[nH]cn1)C(=O)O.[Na+] [Compound IV-1Na, N^α-glutaryl-L-histidine Monosodium Salt]
[1]
  Total cholesterol, HDL: 33.1 ± 1.4 mg/100 ml
  Total cholesterol, LDL + VLDL: 38.8 ± 2.9 mg/100 ml
  Triglycerides, Serum: 106.6 ± 6.2 mg/100 ml
[2]
  Total cholesterol, Serum: 72.0 ± 3.0 mg/100 ml
Day 5 of the experiment (Table 19), Monosodium Salt
  Total cholesterol, HDL: 60.7 ± 3.1 mg/100 ml and 55.1 ± 2.8 mg/100 ml
Day 5 of the experiment (Table 19, n = 12 series), Monosodium Salt
  Total cholesterol, Serum: 94.4 ± 3.4 mg/100 ml and 96.9 ± 4.5 mg/100 ml
[3]
  Total cholesterol, HDL: 37.1 ± 1.4 mg/100 ml
  Total cholesterol, LDL + VLDL: 61.9 ± 6.6 mg/100 ml
  Total cholesterol, Serum: 99.1 ± 6.0 mg/100 ml
  Triglycerides, Serum: 146.4 ± 11.2 mg/100 ml
[4]
  Total cholesterol, HDL: 37.7 ± 1.0 mg/100 ml
  Total cholesterol, LDL + VLDL: 59.7 ± 7.2 mg/100 ml
  Total cholesterol, Serum: 97.4 ± 7.1 mg/100 ml
  Triglycerides, Serum: 132.5 ± 8.4 mg/100 ml
[5]
  Total cholesterol, HDL: 53.4 ± 2.2 mg/100 ml and 52.9 ± 3.8 mg/100 ml
  Total cholesterol, LDL + VLDL: 68.7 ± 10.1 mg/100 ml and 70.5 ± 8.9 mg/100 ml
  Total cholesterol, Serum: 122.1 ± 9.8 mg/100 ml and 123.3 ± 7.3 mg/100 ml

## O=C([O-])CCCC(=O)N[C@@H](Cc1c[nH]cn1)C(=O)[O-].[Na+].[Na+] [Compound IV” 2Na, N^α-glutaryl-L-histidine disodium salt]
[1]
  Total cholesterol, HDL: 35.0 ± 1.3 mg/100 ml
  Total cholesterol, LDL + VLDL: 44.3 ± 2.7 mg/100 ml
  Triglycerides, Serum: 88.3 ± 4.8 mg/100 ml
[2]
  Total cholesterol, Serum: 80.6 ± 2.8 mg/100 ml
[3]
  Total cholesterol, HDL: 35.9 ± 1.8 mg/100 ml
  Total cholesterol, LDL + VLDL: 54.3 ± 5.8 mg/100 ml
  Total cholesterol, Serum: 90.2 ± 5.1 mg/100 ml
  Triglycerides, Serum: 125.8 ± 9.4 mg/100 ml
[4]
  Total cholesterol, HDL: 40.0 ± 1.9 mg/100 ml
  Total cholesterol, LDL + VLDL: 57.3 ± 4.3 mg/100 ml
  Total cholesterol, Serum: 97.9 ± 3.9 mg/100 ml
  Triglycerides, Serum: 127.3 ± 6.2 mg/100 ml
Rats with cholesterol loading
  effect on serum total triglycerides (in words): lowered serum total triglyceride levels at days 5 and 10

## O=C([O-])CCC(=O)N[C@@H](Cc1c[nH]cn1)C(=O)O.[Na+] [Compound V—1Na, N^α-succinyl-L-histidine Monosodium Salt]
Rats with cholesterol loading
  effect on serum total triglycerides (in words): ability thereof to lower serum total triglyceride levels

## O=C(O)CCC(=O)N[C@@H](Cc1c[nH]c2ccccc12)C(=O)[O-].[Na+] [II-1Na, N^+-succinyl-L-tryptophane Monosodium Salt]
[6]
  Total cholesterol, HDL: 49.5 ± 3.8 mg/100 ml
  Total cholesterol, LDL + VLDL: 60.2 ± 10.6 mg/100 ml
  Triglycerides, HDL: 32.6 ± 2.5 mg/100 ml
  Triglycerides, LDL + VLDL: 48.2 ± 4.9 mg/100 ml
  Triglycerides, Serum: 80.9 ± 5.5 mg/100 ml
[7]
  Total cholesterol, Serum: 109.7 ± 9.4 mg/100 ml
[8]
  Total cholesterol, HDL: 52.9 ± 4.1 mg/100 ml
  Total cholesterol, LDL + VLDL: 87.9 ± 14.5 mg/100 ml
  Total cholesterol, Serum: 140.8 ± 13.6 mg/100 ml
  Triglycerides, HDL: 44.5 ± 2.5 mg/100 ml
  Triglycerides, LDL + VLDL: 73.9 ± 15.4 mg/100 ml
  Triglycerides, Serum: 111.6 ± 17.2 mg/100 ml
[9]
  Total cholesterol, HDL: 54.7 ± 2.2 mg/100 ml
  Total cholesterol, LDL + VLDL: 79.7 ± 12.6 mg/100 ml
  Total cholesterol, Serum: 134.4 ± 12.5 mg/100 ml
  Triglycerides, HDL: 38.9 ± 2.4 mg/100 ml
  Triglycerides, LDL + VLDL: 69.6 ± 11.1 mg/100 ml
  Triglycerides, Serum: 108.5 ± 11.3 mg/100 ml

## O=C([O-])CCCC(=O)N[C@@H](Cc1c[nH]c2ccccc12)C(=O)O.[Na+] [III-1Na, N^α-glutaryl-L-tryptophan Monosodium Salt]
[6]
  Total cholesterol, HDL: 49.0 ± 2.1 mg/100 ml
  Total cholesterol, LDL + VLDL: 40.0 ± 5.4 mg/100 ml
  Triglycerides, HDL: 30.0 ± 2.2 mg/100 ml
  Triglycerides, LDL + VLDL: 57.4 ± 9.1 mg/100 ml
  Triglycerides, Serum: 87.4 ± 9.4 mg/100 ml
[7]
  Total cholesterol, Serum: 89.0 ± 5.0 mg/100 ml
[8]
  Total cholesterol, HDL: 48.4 ± 2.7 mg/100 ml
  Total cholesterol, LDL + VLDL: 60.4 ± 8.3 mg/100 ml
  Total cholesterol, Serum: 108.8 ± 8.2 mg/100 ml
  Triglycerides, HDL: 45.2 ± 3.2 mg/100 ml
  Triglycerides, LDL + VLDL: 79.2 ± 7.7 mg/100 ml
  Triglycerides, Serum: 124.4 ± 8.9 mg/100 ml
[9]
  Total cholesterol, HDL: 48.8 ± 2.4 mg/100 ml
  Total cholesterol, LDL + VLDL: 53.5 ± 7.3 mg/100 ml
  Total cholesterol, Serum: 102.3 ± 6.9 mg/100 ml
  Triglycerides, HDL: 34.3 ± 2.3 mg/100 ml
  Triglycerides, LDL + VLDL: 75.0 ± 8.5 mg/100 ml
  Triglycerides, Serum: 109.3 ± 10.5 mg/100 ml
Rats with cholesterol loading
  effect on HDL cholesterol (in words): did not change
  effect on serum total triglycerides (in words): did not change
[10]
  lowered cholesterol of the VLDL+LDL fractions: 40%
  lowered total cholesterol: 29%

## CC[C@H](C)C(=O)O[C@H]1C[C@@H](C)C=C2C=C[C@H](C)[C@H](CC[C@@H]3C[C@@H](O)CC(=O)O3)[C@H]21 [Lovastatine, reference compound]
[11]
  Total cholesterol, CHDL: 50.6 ± 1.3 mg/100 ml
  Total cholesterol, CLLD + CLVLD: 49.9 ± 0.9 mg/100 ml
  Total cholesterol, Liver: 2.41 ± 0.17 mg/g of tissue
  Total cholesterol, Serum: 100.5 ± 6.7 mg/100 ml
  Triglycerids, Liver: 6.25 ± 0.13 mg/g of tissue
  Triglycerids, Serum: 93.6 ± 7.5 mg/100 ml

## CCC(C)(C)C(=O)O[C@H]1C[C@@H](C)C=C2C=C[C@H](C)[C@H](CC[C@@H]3C[C@@H](O)CC(=O)O3)[C@H]21 [Sim, Simvastatine, reference compound]
[1]
  Total cholesterol, HDL: 27.8 ± 2.7 mg/100 ml
  Total cholesterol, LDL + VLDL: 43.0 ± 8.3 mg/100 ml
  Triglycerides, Serum: 108.9 ± 6.9 mg/100 ml
[2]
  Total cholesterol, Serum: 73.6 ± 7.3 mg/100 ml
[3]
  Total cholesterol, HDL: 33.2 ± 1.8 mg/100 ml
  Total cholesterol, LDL + VLDL: 66.9 ± 13.4 mg/100 ml
  Total cholesterol, Serum: 100.1 ± 12.8 mg/100 ml
  Triglycerides, Serum: 119.9 ± 10.5 mg/100 ml
[4]
  Total cholesterol, HDL: 32.7 ± 1.2 mg/100 ml
  Total cholesterol, LDL + VLDL: 61.2 ± 9.7 mg/100 ml
  Total cholesterol, Serum: 93.9 ± 10.2 mg/100 ml
  Triglycerides, Serum: 142.0 ± 5.4 mg/100 ml
Rats with cholesterol loading
  effect on HDL cholesterol (in words): did not effect
